One may read the IC50 as the point on the concentration scale where inhibition reaches its midpoint. Read a high IC50 as lower potency.

Where a name gives a salt, the structure may show the parent alone.

This assay deals with protein kinase C. The assay can be described thus: Inhibition of protein kinase C in vitro (protein kinase-induced incorporation of 32P from [γ-32P]ATP into histone). It counts as biochemical. Particulars: concentration which reduces by 50% the protein kinase-induced incorporation of 32P from [γ-32P]ATP into histone. An excerpt:
The IC50 FIGURES in the following Table are that concentration of test compound which reduces by 50% the protein kinase-induced incorporation of ^32 P from [γ-^32 P]ATP into histone.
The compound `CN(C)CC1Cc2c(C3=C(c4cn(C)c5ccccc45)C(=O)NC3=O)c3ccccc3n2C1` (centres unmarked) [3-[2,3-dihydro-2-(dimethylaminomethyl)-1H-pyrrolo[1,2-a]indol-9-yl]-4-(1-methyl-3-indolyl)-1H-pyrrole-2,5-dione trifluoromethanesulphonate] showed an IC50 of 20 nM.

As to `Cn1cc(C2=C(c3c4n(c5ccccc35)CCN(C(=O)CN)C4)C(=O)NC2=O)c2ccccc21` [3-[2-(aminoacetyl)-1,2,3,4-tetrahydropyrazino[1,2-a]indol-10-yl]-4-(1-methyl-3-indolyl)-1H-pyrrole-2,5-dione hydrochloride], the midpoint of inhibition, the IC50, lay at 50 nM.

`Cn1cc(C2=C(c3c4n(c5ccccc35)CCC(CN3CCCCC3)C4)C(=O)NC2=O)c2ccccc21` (centres unmarked) [3-[6,7,8,9-tetrahydro-8-[(1-piperidino)methyl]pyrido[1,2-a]indol-10-yl]-4-(1-methyl-3-indolyl)-1H-pyrrole-2,5-dione] yielded an IC50 of 30 nM.

`Cn1cc(C2=C(c3c4n(c5ccccc35)CC(CCN)CC4)C(=O)NC2=O)c2ccccc21` (centres unmarked) [3-[7-(2-aminoethyl)-6,7,8,9-tetrahydropyrido[1,2-a]indol-10-yl]-4-(1-methyl-3-indolyl)-1H-pyrrole-2,5-dione hydrochloride] had a half-maximal inhibitory concentration (IC50) of 20 nM.

`Cn1cc(C2=C(c3c4n(c5ccccc35)CC(CSC(=N)N)CC4)C(=O)NC2=O)c2ccccc21` (centres unmarked) [3-[7-(amidinothiomethyl)-6,7,8,9-tetrahydropyrido[1,2-a]indol-10-yl]-4-(1-methyl-3-indolyl)-1H-pyrrole-2,5-dione methanesulfonate] gave an IC50 of 10 nM.

For the compound `Cn1cc(C2=C(c3c4n(c5ccccc35)CC(CN)CC4)C(=O)NC2=O)c2ccccc21` (centres unmarked) [3-[7-(aminomethyl)-6,7,8,9-tetrahydropyrido[1,2-a]indol-10-yl]-4-(1-methyl-3-indolyl)-1H-pyrrole-2,5-dione], the IC50 was determined as 15 nM.

As for `Cn1cc(C2=C(c3c4n(c5ccccc35)CCC(CN)C4)C(=O)NC2=O)c2ccccc21` (centres unmarked) [3-[8-(aminomethyl)-6,7,8,9-tetrahydropyrido[1,2-a]indol-10-yl]-4-(1-methyl-3-indolyl)-1H-pyrrole-2,5-dione hydrochloride], the IC50 is 8 nM.

`Cn1cc(C2=C(c3c4n(c5ccccc35)CCC(C(=N)N)C4)C(=O)NC2=O)c2ccccc21` (centres unmarked) [3-[8-amidino-6,7,8,9-tetrahydropyrido[1,2-a]indol-10-yl]-4-(1-methyl-3-indolyl)-1H-pyrrole-2,5-dione hydrochloride] had an IC50 of 60 nM.

These data come from patent publication US5721245A, “4-[3-indolyl]-1H-pyrrolone” (Hoffmann-La Roche Inc., priority 1989, dated 1998).
